Ten molecules from ChEMBL document CHEMBL1143795, “Synthesis and antimalarial activity of new 1,12-bis(N,N'-acetamidinyl)dodecane derivatives” (Bioorg Med Chem Lett, 2007) can be followed below.

Some results are limits rather than exact numbers.

The subject of experiment [1] is Plasmodium vinckei petteri. As to the kind of experiment: Antimalarial activity against Plasmodium vinckei petteri 279BY infected peroral dosed Swiss mice (Mus musculus). Type of experiment: functional. As to conditions: po.
Experiment [2] concerns Plasmodium vinckei petteri. As to the kind of experiment: Antimalarial activity against Plasmodium vinckei petteri 279BY infected intraperitoneal dosed Swiss mice (Mus musculus). As to conditions: ip. Type of experiment: functional.
The subject of experiment [3] is Plasmodium falciparum. As to the kind of experiment: Antimalarial activity against Plasmodium falciparum Nigerian. Type of experiment: functional, organism-based.
Experiment [4] relates to Plasmodium falciparum. As to the kind of experiment: microbe, parasite or virus in culture. As to conditions: W2.
Description: Antimalarial activity against Plasmodium falciparum W2
Experiment [5] relates to Plasmodium falciparum. As to the kind of experiment: microbe, parasite or virus in culture. Conditions: FCM29.
Description: Antimalarial activity against Plasmodium falciparum FCM29

The term ED50 denotes the midpoint of the dose-response relation. A high value points to weaker potency. Usually IC50 stands for the concentration at which inhibition is half-maximal. A low value points to greater potency.

As to `C/C(=N\OS(C)(=O)=O)NCCCCCCCCCCCCN/C(C)=N/OS(C)(=O)=O`, the results for the ED50 in experiment [1] and in experiment [2] were 42 mg/kg and 4.7 mg/kg, respectively. This molecule showed a half-inhibitory concentration (IC50) in experiment [3] of 12 nM.
The like results for `Cc1noc(=O)n1CCCCCCCCCCCCn1c(C)noc1=O` were, in that order, 62 mg/kg, greater than 9 mg/kg and 7100 nM.
In the case of `CC(=O)O/N=C(\C)NCCCCCCCCCCCCN/C(C)=N/OC(C)=O`, the ED50 in experiment [1] is greater than 90 mg/kg; in experiment [2] it was 7.1 mg/kg. The same molecule displayed a concentration for half-maximal inhibition (IC50) in experiment [3] of 1800 nM.
On to `C/C(=N\OC(=O)c1ccccc1)NCCCCCCCCCCCCN/C(C)=N/OC(=O)c1ccccc1`, for which the ED50 in experiment [1] was greater than 90 mg/kg; in experiment [2] it was greater than 9 mg/kg. For the same molecule, the half-maximal inhibitory concentration (IC50) in experiment [3] stood at 68.7 nM.
As to `CCNC(=O)O/N=C(\C)NCCCCCCCCCCCCN/C(C)=N/OC(=O)NCC`, the values for the median effective dose (ED50) in experiment [1] and in experiment [2] were greater than 90 mg/kg and greater than 10 mg/kg, respectively. 93 nM corresponded to half-maximal inhibition in experiment [3] (IC50).
As for `C/C(=N\OC(=O)Nc1ccccc1)NCCCCCCCCCCCCN/C(C)=N/OC(=O)Nc1ccccc1`, the median effective dose (ED50) in experiment [1] was greater than 90 mg/kg; in experiment [2] it was 10 mg/kg. 135 nM corresponded to half-maximal inhibition in experiment [3] (IC50).
Regarding `CC(=N)NCCCCCCCCCCCCNC(C)=N`, the results for the IC50 in experiment [4] and in experiment [5] were 8.1 nM and 4 nM, respectively. For the same molecule, the ED50 in experiment [1] was greater than 200 mg/kg; in experiment [2] it was 3.1 mg/kg.
In the case of `C/C(=N\O)NCCCCCCCCCCCCN/C(C)=N/O`, the 50% effective dose (ED50) is 90 mg/kg in experiment [1] and 9.2 mg/kg in experiment [2]. Moreover, the IC50 in experiment [3] was 310 nM.
In the same order, the values of `CCOP(=O)(OCC)O/N=C(\C)NCCCCCCCCCCCCN/C(C)=N/OP(=O)(OCC)OCC` are greater than 90 mg/kg, greater than 9 mg/kg and 9.6 nM.
In the same order, the values of `CO/N=C(\C)NCCCCCCCCCCCCN/C(C)=N/OC` are 110 mg/kg, greater than 10 mg/kg and 4350 nM.
